Conditions: 21.0 °C

SMILES	log10 OH rate constant (cm³/molecule/s)
CC1=CC=C(C(C)C)CC1	-9.44

Same assay, conditions: 22.0 °C

SMILES	log10 OH rate constant (cm³/molecule/s)
C=C=C	-11

Same assay, conditions: 23.0 °C

SMILES	log10 OH rate constant (cm³/molecule/s)
COC(C)=O	-12.5
c1ncncn1	-12.8

Same assay, conditions: 25.0 °C

SMILES	log10 OH rate constant (cm³/molecule/s)
CCOC(C)(C)OCC	-10.9
COCCOCCOC	-10.8
c1cocn1	-11
O=CCO	-11
COP(=S)(OC)SC	-10.3
COC(C)(C)OC	-11.4
O=CO	-12.3
CCC(C)CS (configuration not stated)	-10.3
CCCSCCC	-10.7
CC(C)(C)C	-12.1
C1COCOC1	-11
CCF	-12.6
OCC(Cl)(Cl)Cl	-12.6
CC(C)(C)c1ccccc1	-11.3
CCCCCCCC	-11.1
C=C/C=C\C	-9.99
FC(F)C(F)(F)F	-14.6
C1C2CC3CC1CC(C2)C3	-10.6
C1=CCCCC=C1	-9.86
C1CO1	-13.1
CC(C)=CC=C(C)C	-9.68
O=[N+]([O-])c1ccc2ccccc2c1	-11.3
Cc1ccc(O)cc1	-10.3

SMILES	log10 OH rate constant (cm³/molecule/s)
Cc1ccc(C)c(C)c1	-10.5
Cc1cccc(C)c1C	-10.5
O=[N+]([O-])c1cccc2ccccc12	-11.3
ClC(Cl)(Cl)Cl	< -15.9
CC(C)CC(C)C	-11.3
Cc1ccc(C)cc1	-10.8
CC1=CCCCC1	-10
CCOCCOC(C)=O	-10.9
c1ccc2ccccc2c1	-10.7
OCCCl	-11.9
CCN(O)CC	-10
C=C(C)CCC(=C)C	-9.92
CCC(C)C	-11.4
CC(C)(C)C=O	-10.6
CC(C)(C)C(C)(C)C	-12
Cc1cccc([N+](=O)[O-])c1	-12
Cc1ccoc1	-10
Ic1ccccc1	-12
Oc1ccccc1	-10.6
C=CC=C(C)C	-9.88
OC1CCCC1	-11
CC(=O)OO[N+](=O)[O-]	-13
ClC=C(Cl)Cl	-11.6

SMILES	log10 OH rate constant (cm³/molecule/s)
CCc1ccc(C)cc1	-10.9
C=CC=C	-10.2
CCCCOCCO	-10.7
N#Cc1ccccc1	-12.5
C=C(C)C	-10.3
COc1ccccc1	-10.8
CC1=CC[C@@H](C(C)C)CC1	-9.9
C=CF	-11.3
CCCCCC	-11.3
CS	-10.5
COCCC(OC)OC	-10.7
CCC(C)OC(C)=O (configuration not stated)	-11.3
CC1=CCC(C(C)C)C=C1 (configuration not stated)	-9.5
CC(C)CC(C)(C)C	-11.4
C=Cc1ccccc1	-10.2
CS(C)=O	-10.2
CC(C)(C)S	-10.5
Cc1cc(C)cc(C)c1	-10.2
CC(O)CO (configuration not stated)	-10.9
CC(C)S	-10.4
FC(F)(F)CCl	-13.8
COP(N)(=S)OC	-9.61
Oc1cccc(Cl)c1Cl	-11.8

SMILES	log10 OH rate constant (cm³/molecule/s)
FC(F)(F)Cl	< -15.2
CCCCOC(=O)CCC	-11
CC(=O)C(C)(C)C	-11.9
CC(=O)CC(C)=O	-11.9
CCCCC(C)CCC (configuration not stated)	-11
Cc1ccccc1[N+](=O)[O-]	-12.2
Nc1ccc(Cl)cc1	-10.4
Nc1ccc(Cc2ccc(N)cc2)cc1	-10.5
CC(C)C(C)O (configuration not stated)	-10.9
C1OCOCO1	-11.2
c1ccc2occc2c1	-10.4
C1=CCCCC1	-10.2
C=C(C)c1ccccc1	-10.3
O=[N+]([O-])c1ccccc1O	-12
CCOCCCO	-10.7
C1=CC2C=CC1C2	-9.92
Clc1ccc(Cl)c2ccccc12	-11.2
CC(=O)C=O	-10.8
C=CC(C)=O	-10.7
Cc1ccc2ccccc2c1[N+](=O)[O-]	< -11.1
C#CCCC	-11
FCCF	-13
CC(C)C=O	-10.6

SMILES	log10 OH rate constant (cm³/molecule/s)
CCCC(C)(C)C	-11.5
CCCCC(C)O (configuration not stated)	-10.9
CC(=O)c1ccccc1	-11.6
C=CBr	-11.2
Brc1ccccc1	-12.1
C=C1CCC2CC1C2(C)C (configuration not stated)	-10.1
CCC(=O)OC	-12
CC(=O)CCC(C)=O	-11.1
O=Cc1ccccc1	-10.9
CC(=O)CO	-11.5
CCCCCCCCCCCCC	-10.8
C=C(C)C=CC	-9.87
FCF	-14
FC(F)(F)F	< -15.4
CCCc1ccccc1	-11.2
CC1CCCC(C)(C)C1 (configuration not stated)	-11.1
CCC=C=O	-9.93
FC(F)=C(Cl)Cl	-11.1
CC(=O)OC(C)C	-11.5
CCCCCCCC(C)=O	-10.9
OCc1ccccc1	-10.6
ClCCl	-12.8
CC1=CCC(C(C)C)=CC1	-9.75

SMILES	log10 OH rate constant (cm³/molecule/s)
CC1CO1 (configuration not stated)	-12.3
C1=Cc2cccc3cccc1c23	-9.96
C=CCCCCC	-10.4
CC(F)(F)F	-14.8
C=CCC=C	-10.3
CC(C)C(=O)O	-11.7
CCc1cccc(C)c1	-10.7
CCSCC	-10.8
C1CCCOCC1	-10.8
CC(C)CS	-10.3
FC(F)Cl	-14.3
Sc1ccccc1	-11
c1ccc2c(c1)CCC2	-11
CCC(C)CC	-11.2
CC=Cc1ccccc1	-10.2
Fc1ccccc1	-12.2
C=C=CC	-10.6
CCCCC=O	-10.5
CCC(C)S (configuration not stated)	-10.4
CC(C)=Cc1ccccc1	-10.5
ClCC1CO1 (configuration not stated)	-12.4
FC(F)(Cl)Br	< -15
CCO	-11.5

SMILES	log10 OH rate constant (cm³/molecule/s)
COCCO	-10.9
C=CC(C)(C)C	-10.5
c1ccc2c(c1)Cc1ccccc1-2	-10.9
CN(C)N=O	-11.6
C=CCCl	-10.8
C=C1C=CC(C(C)C)CC1 (configuration not stated)	-9.77
CCCC	-11.6
CCCCCCCCCC	-10.9
FCCl	-13.4
O=C1CCCCC1	-11.2
Clc1ccccc1	-12.1
CC#CC	-10.6
CC=O	-10.8
C1CCCC1	-11.3
CCc1ccccc1C	-10.9
C1CC2CCC1C2	-11.3
C=CC(C)=CC	-9.87
Clc1ccccc1Cl	-12.4
CCCCCCC(C)C	-11
CCSC	-11.1
c1ccc(-c2ccccc2)cc1	-11.1
CC(=O)CC(C)C	-10.9
O=CCCCC=O	-10.6

SMILES	log10 OH rate constant (cm³/molecule/s)
C=CCCCC	-10.4
c1ccncc1	-12.4
CCCOC(C)=O	-11.5
C=CCO	-10.6
COO	-11.3
Oc1ccc(Cl)cc1Cl	-12
C1CCOC1	-10.8
CN(C)c1ccccc1	-9.83
ClCc1ccccc1	-11.5
C1CCCCCC1	-10.9
CCCCCCCCC	-11
Cc1ccc(N)cc1N	-9.72
CC(C)c1ccccc1	-11.2
O=[N+]([O-])c1ccccc1	-12.9
CC(C)CC(C)C(C)C (configuration not stated)	-11.1
C#CC	-11.2
CCS	-10.3
C1CCC2CCCCC2C1 (configuration not stated)	-10.7
CCCCC(C)(C)C	-11.3
C=C=O	-10.8
C1CCCCC1	-11.1

Same assay, conditions: 26.0 °C

SMILES	log10 OH rate constant (cm³/molecule/s)
CN	-10.7

Reference: the OPERA property sets (Mansouri et al. 2018)
